US8314060B2, “Peptide conjugated anti-cancer prodrugs” (BioSight Ltd., priority 2000, dated 2012)
Non-standard residues stand in square brackets, D forms with d. Residues, ends and D or L forms follow the SMILES beside them. No end group written: not given here. *: point of attachment. Phe(4-N(CH2CH2Cl)2) = N[C@@H](Cc1ccc(N(CCCl)CCCl)cc1)C(=O)O; Chlorambucil = O=C(CCCc1ccc(N(CCCl)CCCl)cc1)*

Experiments:
[1] = tested on: Human melanoma cells (WW-94); experiment: Tissue culture cell counting (cell coulter) after 72 hours, melanoma cells; assay type: cell-based; settings: melanoma (cancer) cells, FIG. 4A, read-out: IC50 (concentration of the drug measured at 50% of the cell death)
Description: (§1) Human melanoma cells (WW-94) were grown in 50% DMEM/50% F-12 medium supplemented with 10% fetal calf serum and antibiotics.
(§2) To determine the biological activity of the drugs, HUVEC (normal cells) or melanoma (cancer) cells were seeded in 24-well dish at a concentration of 10,000-20,000 cells/well, and increasing concentrations of the prodrug 3-Peptide I-Chlorambucil (P-CAC) were added to the wells. As controls, either Cholorambucil or the peptide carrier was added under the same experimental conditions. After 72 hours the cells were washed with phosphate buffer saline (PBS), suspended with 0.5% EDTA/PBS, and counted using cell coulter (Electronics ZM). Cell viability was verified by trypan-blue staining and hemocytometer analysis. IC50 indicates the concentration of the drug measured at 50% of the cell death.

[2] = tested on: Human umbilical vein-derived endothelial cells (HUVEC); experiment: Tissue culture cell counting (cell coulter) after 72 hours, HUVEC (normal cells); assay type: cell-based
Description: (§3) Human umbilical vein-derived endothelial cells (HUVEC) were prepared from umbilical veins and cultured as described previously. The HUVE cells were grown in M199 medium supplemented with 20% fetal calf serum, vitamins, 1 ng/ml hbFGF, and antibiotics.
as §2

melanoma cells = experiment: MTT assay for estimation of toxicity, melanoma cells; assay type: cell-based; settings: Homo sapiens, 72 hours, FIG. 5B
Description: as §1
(§4) HUVEC or melanoma cells were seeded in 96-well ELISA dish at a concentration of 10,000-20,000 cells/well, and various concentrations of the prodrug 1 were added to the wells as described in Example 17. As a control, Melphalan was added under the same experimental conditions. After 72 hours the medium was aspirated, and DMEM containing 5% FCS and 0.5 mg/ml MTT (an indicator of cell viability) was added. The cells were incubated for 2-4 hours at 37° C. and 5% CO2. At the end of the incubation the cells were washed with phosphate buffer saline (PBS), and dissolved with DMSO. The results were analysed using Techan ELISA reader equipped with a 570 nm filter.

HUVEC = experiment: MTT assay for estimation of toxicity, HUVEC (normal cells); assay type: cell-based, human
Description: as §3, §4

purified MMPs = experiment: In-vitro release of Chlorambucil from the peptide carrier by purified MMPs; assay type: biochemical
Description: (§5) In-vitro release of Chlorambucil from the peptide carrier was carried out in a liquid phase as described in Example 19. Peptide I-Chlorambucil was dissolved in PBS, and incubated for 2 hours at 37° C. in the absence or presence of purified MMPs, or in the presence of conditioned medium of either human melanoma cells (HMCM) or human breast cancer cells (BCCM).
(§6) At the end of the incubation the reaction mixture was incubated with heparin-sepharose (30 minutes at 0° C.). The supernatant was collected, and the release of free chlorambucil was monitored by spectrophotometer at a wavelengh of 305 nm.

[3] = tested on: MMPs secreted by cancer cells (conditioned medium of human melanoma cells HMCM or human breast cancer cells BCCM); experiment: In-vitro release of Chlorambucil from the peptide carrier by cancer cell conditioned medium; assay type: biochemical; settings: PBS, 2 hours at 37° C., FIG. 6
Description: To find out whether proteases are secreted to the conditioned medium of cancer cells, breast cancer cells or melanoma cells were grown to sub-confluence in a 10 cm dish. The cells were washed with PBS, and further incubated with serum free medium. HUVE cells were grown to confluence at 10 cm dish. The cells were washed with M-199 medium, and conditioned with M-199 with 1% heat inactivated serum. The conditioned medium was collected after 24 hours.
as §5, §6

Compound: O=C(O)CCCc1ccc(N(CCCl)CCCl)cc1 [Chlorambucil, reference compound]
- IC50 [1]: 2000 nM
- IC50 ([2]; Homo sapiens, HUVEC, HUVE (normal) cells, 72 hours, cell counting, FIG. 4B, read-out: IC50 (concentration of the drug measured at 50% of the cell death)): 2000 nM

Compound: N[C@@H](Cc1ccc(N(CCCl)CCCl)cc1)C(=O)O [Melphalan, reference compound]
- IC50 (melanoma cells): 70 nM
- IC50 (HUVEC; Homo sapiens, HUVEC, HUVE cells, 72 hours, FIG. 5A): 100 nM

Compound: CC[C@H](C)[C@H](NC(=O)CNC(=O)[C@H](CC(C)C)NC(=O)[C@H](CC(C)C)NC(=O)CNC(=O)[C@H](Cc1ccc(O)cc1)NC(=O)[C@@H](N)Cc1ccc(N(CCCl)CCCl)cc1)C(=O)N[C@@H](C)C(=O)NCC(=O)N1CCC[C@H]1C(=O)N1CCC[C@H]1C(=O)NCC(=O)N1CCC[C@H]1C(=O)N1CCC[C@H]1C(=O)N[C@@H](CC(C)C)C(=O)N[C@@H](Cc1ccc(O)cc1)C(=O)N[C@@H](CCCCN)C(=O)N[C@@H](CCCCN)C(=O)N[C@H](C(=O)N[C@H](C(=O)N[C@@H](CCCCN)C(=O)N[C@@H](CCCCN)C(=O)N[C@@H](CC(C)C)C(=O)N[C@@H](CC(C)C)C(=O)N[C@@H](CCC(N)=O)C(=O)N[C@@H](CO)C(=O)O)[C@@H](C)CC)[C@@H](C)CC [Prodrug 1, Peptide I-Melphalan] (H-[Phe(4-N(CH2CH2Cl)2)]YGLLGIAGPPGPPLYKKIIKKLLQS-OH; N-terminus and C-terminus assumed)
- times less toxic to normal cells (HUVEC; HUVE cells versus melanoma cells): 7 times

Compound: CC[C@H](C)[C@H](NC(=O)CNC(=O)[C@H](CC(C)C)NC(=O)[C@H](CC(C)C)NC(=O)CNC(=O)[C@H](Cc1ccc(O)cc1)NC(=O)CCCc1ccc(N(CCCl)CCCl)cc1)C(=O)N[C@@H](C)C(=O)NCC(=O)N1CCC[C@H]1C(=O)N1CCC[C@H]1C(=O)NCC(=O)N1CCC[C@H]1C(=O)N1CCC[C@H]1C(=O)N[C@@H](CC(C)C)C(=O)N[C@@H](Cc1ccc(O)cc1)C(=O)N[C@@H](CCCCN)C(=O)N[C@@H](CCCCN)C(=O)N[C@H](C(=O)N[C@H](C(=O)N[C@@H](CCCCN)C(=O)N[C@@H](CCCCN)C(=O)N[C@@H](CC(C)C)C(=O)N[C@@H](CC(C)C)C(=O)N[C@@H](CCC(N)=O)C(=O)N[C@@H](CO)C(=O)O)[C@@H](C)CC)[C@@H](C)CC [Prodrug 3, Peptide I-Chlorambucil] (Chlorambucil-YGLLGIAGPPGPPLYKKIIKKLLQS-OH)
- effect of heparin on release of the chemotherapeutic agent from the peptide carrier (purified MMPs; presence of 10 μg/ml heparin, 2 hours incubation): inhibited the release
- release of free chlorambucil from the peptide carrier (purified MMPs; purified MMPs, PBS, 2 hours at 37° C., read at 305 nm, FIG. 6): can be released
- times less toxic to normal cells ([2]; HUVE cells versus melanoma cells, cell counting): 30 times
- release of free chlorambucil from the peptide carrier [3]: can be released

Compound: YGLLGIAGPPGPPLYKKIIKKLLQS [peptide carrier]
- toxicity to HUVEC ([2]; HUVEC, 72 hours, FIG. 4): not toxic
